Earlier results, collected in patent US20200085783A1 (priority 2013, published 2020).

Tests used:
[1] = read-out: in vitro IC50 growth inhibitory effects
NaK pump = NaK pump (Rattus norvegicus, UniProt P06685)

| Structure (SMILES) | IC50 [1] | decrease in sensitivity of rodent compared to human cells (NaK pump) |
| --- | --- | --- |
| C[C@@H]1O[C@@H](O[C@H]2C[C@@H](O)[C@]3(CO)[C@H]4[C@H](O)C[C@]5(C)[C@@H](C6=CC(=O)OC6)CC[C@]5(O)[C@@H]4CC[C@]3(O)C2)[C@H](O)[C@H](O)[C@H]1O [ouabain] | 10 to 100 nM | – |
| C[C@@H]1C[C@@]2(NC(=O)CS2)[C@]2(O)O[C@@H]3C[C@@]4(CO)[C@@H](CC[C@@H]5[C@@H]4CC[C@]4(C)[C@@H](C6=CC(=O)OC6)CC[C@]54O)C[C@H]3O[C@@H]2O1 [UNBS1450] | – | 100-1000 times |
